What was measured:
normal mice [1] = test: Y maze test in normal mice; type: in vivo, mouse; details: 30 mg/kg i.p., 60 minutes after
Method: A vehicle (10% DMSO solution; dissolved in saline; n=11) or PA-915 (30 mg/kg; n=10) was intraperitoneally administered (0.1 mL/10 g) to male C57BL/6J mice (8 to 12 weeks old). After a lapse of 60 minutes after administration, the mice were allowed to explore the Y maze for 5 minutes in a laboratory (illuminance: 20 lx). The data was indicated by mean±standard error.

normal mice [2] = test: Novel object recognition test in normal mice; type: in vivo, mouse; details: 30 mg/kg i.p., 60 minutes later
Method: Male C57BL/6J mice (8 weeks old) were acclimatized to the test box by exploration at 10 min/day for 3 days. On the fourth day, two objects differing in shape were placed in the test box, and the mice were allowed to freely explore the test box for 10 minutes (training trial). 23 hours after the completion of exploration, a vehicle (10% DMSO solution; dissolved in saline; n=10) or PA-915 (30 mg/kg; n=10) was intraperitoneally administered thereto (0.1 mL/10 g). 60 minutes later, one of the two objects was changed to a novel object, and the mice were allowed to explore the test box for 5 minutes (retention trial). Novel and known object exploration times were measured. The results are shown in FIGS. 36B and 36C (B: discrimination index, C: novel object exploration ratio). The data was indicated by mean±standard error.

SMILES: O=C(NCCc1c[nH]cn1)C1CC(=O)N(c2n[nH]c3c(Cl)cccc23)C1 (centres unmarked) [PA-915, N-[2-(1H-imidazol-4-yl)ethyl]-1-(7-chloro-1H-indazol-3-yl)-5-oxo-3-pyrrolidinecarboxamide]
- influence on cognitive function (Y maze test) (normal mice [1]): had no influence on the cognitive function
- influence on cognitive function (novel object recognition test) (normal mice [2]): had no influence on the cognitive function

— patent US12458643B2, “Antidepressant/anxiolytic drug in which PAC1 receptor antagonist is used” (KAGOSHIMA UNIVERSITY, priority 2020, dated 2025)
